# In patent US20110184147A1, “ENZYME SUBSTRATE FOR LABELING OF PROTEIN” (priority 2008, published 2011):
# Entries after “also recorded” stand apart in the source; their conditions may differ.
# Key:
# Format in all cases: biochemical, microbial
# MTG [1] = target: T1, MTG (Streptomyces mobaraensis, UniProt P81453); experiment: MTG-catalyzed introduction of fluorescent substrates into NK6-AP (SDS-PAGE, fluorescent imager)
# T1 construct: purchased AJINOMOTO (supplied as a gift)
# Description: To perform a binding reaction, the fluorescent substrate (FITC-ε-Acp-QG, FITC-β-Ala-QG, Flc-QG, TR-β-Ala-QG or Dns-ε-Acp-QG), NK6-AP and MTG were added to 10 mM Tris-HCl (pH 8) to give respective final concentrations of 1 mM, 0.5 mg/ml and 1 U/ml and they were thoroughly agitated and the resulting solution was left to stand overnight at 4° C. For the purpose of comparison, an MTG-free sample was prepared.
# After the reaction, the samples were subjected to SDS-polyacrylamide gel electrophoresis (SDS-PAGE). The gel from SDS-PAGE was examined with a fluorescent imager before it was stained with Coomassie Brilliant Blue (CBB) in solution. For the sample containing Dns-ε-Acp-QG, examination was made with a transilluminator.
# A study was made using FITC-β-Ala-QG as a fluorescent substrate. The reaction conditions for introducing FITC-β-Ala-QG into NK6-AP were as follows: FITC-β-Ala-QG, NK6-AP and MTG were added to 10 mM Tris-HCl (pH 8) to give respective final concentrations of 0.1 mM, 0.5 mg/ml and 0.1 U/ml and they were thoroughly agitated at 4° C. for 0-5 hours. To trace the binding, the gel from SDS-PAGE was analyzed by a fluorescent imager.
# A study was made using FITC-β-Ala-QG as a fluorescent substrate. The reaction conditions for introducing FITC-β-Ala-QG into NK6-AP were as follows: FITC-β-Ala-QG, NK6-AP and MTG were added to 10 mM Tris-HCl (pH 8) to give respective final concentrations of 1-1000 μM, 0.5 mg/ml and 0.1 U/ml and they were thoroughly agitated at 4° C. for 15 minutes. Tracing on the sample after the reaction was performed by the same procedure as in Experiment 2-4.
# Dns-β-Ala-QG-biotin, NK6-AP and MTG were added to 20 mM Tris-HCl (pH 8) to give respective final concentrations of 100 μM, 0.5 mg/ml, and 1 U/ml. For the purpose of comparison, an MTG-free sample was prepared. The ingredients were thoroughly agitated and the resulting solution was left to stand overnight at 4° C. for reaction.
# After the reaction, the samples were subjected to SDS-polyacrylamide gel electrophoresis (SDS-PAGE). The gel from SDS-PAGE was examined with a transilluminator before it was stained with Coomassie Brilliant Blue (CBB) in solution.
# To a 50 mM buffer whose pH was varied over the range of from 5 to 9, FITC-β-Ala-QG, NK6-AP and MTG were added to give respective final concentrations of 0.1 mM, 0.5 mg/ml, and 0.1 U/ml. These ingredients were well stirred and left to stand at 4° C. for reaction. After 6-hr or 15-minute reaction, the sample was mixed with a sample buffer and heated at 95° C. for 15 minutes to stop the reaction. Thereafter, SDS-polyacrylamide gel electrophoresis (SDS-PAGE) was applied. The gel from SDS-PAGE was stained with Coomassie Brilliant Blue (CBB) and observed with a fluorescent imager.
# To 50 mM Tris-HCl (pH 8), FITC-β-Ala-QG, NK6-AP and MTG were added to give respective final concentrations of 0.1 mM, 0.5 mg/ml, and 0.001-1 U/ml. These ingredients were well stirred and left to stand at 4° C. for reaction. The reaction was stopped and evaluation was made by the same procedures as in Experiment 2-2.
# To 50 mM Tris-HCl (pH 8), FITC-β-Ala-QG-alkyne, NK6-AP and MTG were added to give respective final concentrations of 0.1 mM, 0.5 mg/ml, and 0.1 U/ml. For the purpose of comparison, a MTG-free sample was also prepared. Both samples were well stirred and left to stand at 4° C. for reaction. The reaction was stopped and evaluation was made by the same procedures as in Experiment 2-2.
# MTG [2] = target: T1, MTG; experiment: MTG-catalyzed binding reaction of fluorescent substrate with β-casein; details: substrate 1 mM, β-casein 0.5 mg/ml, MTG 1 U/ml, phosphate buffer pH 7, overnight 27° C.
# Description: To perform a binding reaction, FITC-β-Ala-QG, β-casein and GTG were added to 50 mM HEPES (5 mM NaCl, 10 mM CaCl2, pH 7.4) to give respective final concentrations of 1 mM, 0.5 mg/ml and 0.2 U/ml and the resulting mixture was left to stand overnight at 27° C. Two comparative samples were prepared; one was a GTG-free sample and the other was prepared by performing an MTG-catalyzed reaction. For the MTG-catalyzed binding reaction, FITC-β-Ala-QG, β-casein and MTG were added to a 10 mM phosphate buffer (pH 7) to give respective final concentrations of 1 mM, 0.5 mg/ml and 1 U/ml and the resulting mixture was left to stand overnight at 27° C. Tracing on the sample after the reaction was performed by the same procedure as in Experiment 2-2.
# MTG [3] = target: T1, MTG; experiment: MTG-catalyzed introduction of fluorescent substrates into anti-lysozyme IgG2a antibody; details: substrate 1 mM, mouse anti-lysozyme IgG2a 0.5 mg/ml, MTG 1 U/ml, pH 7, overnight 4° C.; reduced SDS-PAGE
# Description: A fluorescent substrate (FITC-ε-Acp-QG, FITC-β-Ala-QG, TR-β-Ala-QG or […]), mouse-derived anti-lysozyme IgG2a antibody (monoclonal) and MTG were added to a 10 mM phosphate buffer (pH 7) to give respective final concentrations of 1 mM, 0.5 mg/ml and 1 U/ml. For the purpose of comparison, an MTG-free sample was prepared. The ingredients were thoroughly agitated and the resulting solution was left to stand overnight at 4° C.
# After the reaction, the samples were subjected to SDS-PAGE. The gel from SDS-PAGE was examined with a fluorescent imager before it was stained with a CBB dye solution. For the Dns-ε-Acp-QG containing sample, examination was made with a transilluminator.
# [4] = NK6-AP 0.5 mg/ml, MTG 0.1 U/ml, pH 8, 4° C., 15 minutes
# T1 sequence (P81453 77-407): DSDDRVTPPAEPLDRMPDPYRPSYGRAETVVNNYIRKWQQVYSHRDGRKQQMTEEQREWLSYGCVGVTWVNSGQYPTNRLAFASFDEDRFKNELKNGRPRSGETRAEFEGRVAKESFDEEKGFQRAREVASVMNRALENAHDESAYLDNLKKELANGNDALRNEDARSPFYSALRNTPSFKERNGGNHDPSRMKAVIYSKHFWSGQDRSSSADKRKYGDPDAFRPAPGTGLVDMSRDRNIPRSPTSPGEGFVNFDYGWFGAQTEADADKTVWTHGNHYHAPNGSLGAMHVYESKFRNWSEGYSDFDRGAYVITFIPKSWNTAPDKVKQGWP
compound,measurement,setting,value
NC(=O)CCC(NC(=O)CCNC(=S)Nc1ccc(-c2c3ccc(=O)cc-3oc3cc(O)ccc23)c(C(=O)O)c1)C(=O)NCC(=O)O (stereo not drawn) [FITC-β-Ala-QG],pH range with comparable levels of fluorescent intensity (reaction saturated),"MTG [1]; 6-hr reaction, pH 5 to 9, substrate 0.1 mM, MTG 0.1 U/ml, 4° C.",5-8
same,pH of rapid introduction into NK6-AP,"MTG [1]; 15-min reaction, pH 5 to 9, substrate 0.1 mM, MTG 0.1 U/ml, 4° C.",rapid introduction was achieved at pH values of 6 and 8
same,Maximum substrate concentration at which reaction progressed,MTG [1]; [4],1 mM
same,Minimum substrate concentration at which reaction progressed and detection was possible,MTG [1]; [4],1 µM
same,Degree of introduction into NK6-AP at 1 U MTG,"MTG [1]; NK6-AP, substrate 0.1 mM, pH 8, 4° C.",did not drop
same,MTG concentration at which an adequately rapid reaction proceeded,"MTG [1]; NK6-AP, substrate 0.1 mM, pH 8, 4° C., MTG 0.001-1 U/ml",0.1 U
same,Reactivity of MTG for fluorescent substrate (introduction into NK6-AP),"MTG [1]; substrate 1 mM, NK6-AP 0.5 mg/ml, MTG 1 U/ml, 10 mM Tris-HCl pH 8, overnight 4° C.",served as substrates of MTG; also recorded: recognizable as a substrate of MTG
same,Fluorescence intensity of MTG lane compared with GTG lane,MTG [2],higher fluorescence intensity
same,Reactivity of antibody with fluorescent substrate by MTG catalysis,MTG [3],H chains of the antibody are modified
